We go through 9 molecules from patent US6455587B1 (priority 2000, dated 2002).

Molecules are shown by their SMILES.

In the first experiment the target is T1, recombinant HIV-1 protease (Human immunodeficiency virus type 1 group M subtype B, UniProt P04585).
T1 construct: recombinant HIV-1 protease (final concentration 2.18 nM) purchased from Bachem Bioscience; purchased Bachem Bioscience
Kind of experiment: Enzymatic fluorometric (FRET) assay for determining the inhibition constant (Ki) against HIV protease. It counts as biochemical. To be noted: Ki (nM). The method in brief:
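FRET substrate (EDANS/DABCYL) cleavage followed at 31° C., ex 340/em 485 nm. Initial velocity recorded over 4 min, then inhibitor added at several concentrations and rate read another 4 min. Ki derived from v0 and vi via Henderson equation using [S] and Km.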
Consider `Cc1ccc(S(=O)(=O)N(CC(C)C)[C@@H](CCCCNC(=O)OCC2c3ccccc3-c3ccccc32)C(=O)O)cc1` [Compound 67, Nα-Isobutyl-Nα-(4-methylbenzenesulfonyl)-Nε-(9-fluorenylmethoxycarbonyl)-L-lysine], for which the Ki (commonly a dissociation constant, usually derived from enzyme kinetics or from competition with a known ligand) amounted to 4.3 nM.

The same experiment, now with this note: fluorometric FRET assay, 31° C., pH 4.7, recombinant HIV-1 protease 2.18 nM, substrate 10 μM; read-out: Ki.
Regarding `CC(C)CN([C@@H](CCCCNC(=O)CCc1cccnc1)C(=O)O)S(=O)(=O)c1ccc(N)cc1` [Compound 195, Nα-Isobutyl-Nα-(4-aminobenzenesulfonyl)-Nε-[3-(3-pyridyl)propionyl]-L-lysine], the Ki is over 300 nM.

Staying with this experiment, now noted: fluorometric FRET assay, recombinant HIV-1 protease, pH 4.7, 31° C.; read-out: Ki.
Take `CC(C)CN([C@@H](CCCCNC(=O)CCc1ccccc1N)C(=O)O)S(=O)(=O)c1ccc(N)cc1` [Compound 122, Nα-Isobutyl-Nα-(4-aminobenzenesulfonyl)-Nε-(2-aminodihydrocinnamoyl)-L-lysine]: the Ki was over 300 nM. Regarding `Cc1ccc(S(=O)(=O)N(CC(C)C)[C@@H](CCCCNC(=O)CCc2ccc(O)cc2)C(=O)O)cc1` [Compound 126, Nα-Isobutyl-Nα-(4-methylbenzenesulfonyl)-Nε-(4-hydroxydihydrocinnamoyl)-L-lysine], the Ki was over 300 nM. The same measure, in the same setting: the result for `O=C(Cc1c[nH]c2ccccc12)N[C@@H](CCCCNS(=O)(=O)c1ccc(Br)cc1)C(=O)O` [Compound 29, Nα-(3-Indoleacetyl)-Nε-(4-bromobenzenesulfonyl)-L-lysine] reads 10500 nM; that for `CC(C)CN([C@@H](CCCCNC(=O)OCC1c2ccccc2-c2ccccc21)C(=O)O)S(=O)(=O)c1ccc(Br)cc1` [Compound 4, Nα-Isobutyl-Nα-(4-bromobenzenesulfonyl)-Nε-(9-fluorenylmethoxycarbonyl)-L-lysine], 11.4 nM. For `Cc1ccc(S(=O)(=O)N(CC(C)C)C(CCCCNC(=O)c2cc3ccccc3[nH]2)C(=O)O)cc1` (stereo not drawn) [Compound 88], the Ki is over 625 nM. The same measure, in the same setting: then `O=C(O)[C@H](CCCCNS(=O)(=O)c1ccc(Br)cc1)NS(=O)(=O)c1ccc(Br)cc1` [Compound 17, Nα,Nε-di-(4-Bromobenzenesulfonyl)-L-lysine], with 7700 nM; and `O=C(O)[C@H](CCCNS(=O)(=O)c1ccc(Br)cc1)NS(=O)(=O)c1ccc(Br)cc1` [Compound 57, Nα,Nδ-di-(4-Bromobenzenesulfonyl)-L-ornithine], with 42400 nM.
